Where two headings read alike, the source gives them in different places.
How the values were obtained:
P2X7 [1] = target: T1, P2X7 (Homo sapiens (Human), UniProt Q99572); assay: Radioligand binding ([3H]A-804598) to membranes of human P2X7-1321N1 cells; details: human P2X7-1321N1 membranes, tracer tritiated A-804598, 1 hour at 4° C.
Protocol: P2X7 Antagonism in Recombinant Human P2X7 Cells or Recombinant Rat P2X7 Cells:
human or rat P2X7-1321N1 cells were collected and frozen @ −80° C. On the day of the experiment, cell membrane preparations were made according to standard published methods. […] The compound can be prepared as described in the literature. […] The assay was terminated by filtration (GF/B filters pre-soaked with 0.3% PEI) and washed with washing buffer (Tris-HCl 50 mM). The IC50 generated in the binding assay was corrected for tracer concentration and affinity of the tracer to derive at the affinity (Ki) of the test compounds. The data are presented in Table 2 under the headings: P2X7 human Ki (μM) and P2X7 rat Ki (μM). Data are analyzed and graphed on Graphpad Prism 5. For analysis, each concentration point is averaged from triplicate values and the averaged values are plotted on Graphpad Prism.

P2X7 [2] = target: T1, P2X7; assay: P2X7 antagonism in human peripheral blood mononuclear cells (PBMCs), IL-1β release (LPS + Bz-ATP, ELISA); assay type: cell-based; details: P2X7, 10 μM test compound, LPS 30 ng/ml + Bz-ATP 0.5 mM, read-out: PBMC @10 μM (% control)
Protocol: (§1) P2X7 Antagonism in Human Peripheral Blood Mononuclear Cells (PBMCs) and Human Whole Blood.
(§2) Human blood was collected using a blood donor program. PBMCs were isolated from blood using a Ficoll density gradient technique. Briefly, blood was laid on Ficoll solution and centrifuged at ROOM TEMPERATURE for 20 minutes at 2000 rpm. The buffy layer (between red blood cells and plasma) was carefully collected by aspiration, washed with PBS and centrifuged again at 1500 rpm for 15 minutes. The resulting cell pellet was washed and plated on 96 well-plates for experiments. For the Human Whole Blood experiments, 150 μl of human blood was plated on 96 well-plates. Lipopolysaccharide (LPS) (30 ng/ml) was added to each well and incubated for 1 hour. Test compounds were then added and incubated for 30 minutes. The P2X7 agonist, 2′(3′)-O-(4-benzoylbenzoyl) adenosine 5′-triphosphate (Bz-ATP) was then added at a final concentration of 0.5 mM (PBMC) or 1 mM (blood). Cells were incubated for an additional 1.5 hours. At that point, supernatant was collected and stored for IL-1β assay using manufacturer's protocol for enzyme-linked immunosorbant assay (ELISA). Data was expressed as percent control, where control is defined as the difference in IL-1β release in LPS+Bz-ATP samples and LPS only samples. Data was plotted as response (% control) versus concentration to generate IC50 values. […] Data are analyzed and graphed on Graphpad Prism 5. For analysis, each concentration point is averaged from triplicate values and the averaged values are plotted on Graphpad Prism. The IC50 for each compound is then uploaded into 3DX.

P2X7 [3] = target: T1, P2X7; assay: P2X7 antagonism in human whole blood, IL-1β release (LPS + Bz-ATP, ELISA); assay type: cell-based; details: LPS 30 ng/ml + Bz-ATP 1 mM
Protocol: as §1, §2

rat P2X7 = rat P2X7 (Rattus norvegicus (Rat), UniProt Q64663); assay: P2X7 antagonism in recombinant rat P2X7 cells (column headed P2X7 Rat IC50); assay type: binding
Chain of rat P2X7 (Q64663 whole entry): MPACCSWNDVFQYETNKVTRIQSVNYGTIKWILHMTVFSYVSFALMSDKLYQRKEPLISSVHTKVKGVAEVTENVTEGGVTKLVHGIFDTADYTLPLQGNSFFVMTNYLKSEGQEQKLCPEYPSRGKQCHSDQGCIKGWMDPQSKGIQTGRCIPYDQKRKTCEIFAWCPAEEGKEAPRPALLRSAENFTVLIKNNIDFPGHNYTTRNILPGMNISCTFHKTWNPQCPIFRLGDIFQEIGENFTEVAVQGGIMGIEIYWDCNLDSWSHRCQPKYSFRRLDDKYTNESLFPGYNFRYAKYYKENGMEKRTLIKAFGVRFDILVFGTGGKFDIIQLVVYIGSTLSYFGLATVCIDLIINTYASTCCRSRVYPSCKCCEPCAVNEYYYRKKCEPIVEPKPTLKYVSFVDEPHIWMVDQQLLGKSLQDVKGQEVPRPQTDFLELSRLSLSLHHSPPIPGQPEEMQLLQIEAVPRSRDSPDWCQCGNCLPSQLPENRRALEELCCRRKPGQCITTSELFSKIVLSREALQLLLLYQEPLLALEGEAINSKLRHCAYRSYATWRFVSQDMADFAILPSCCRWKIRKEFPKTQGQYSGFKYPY
Protocol: The in vitro affinity of the compounds of the invention for the rat and human P2X7 receptor was determined using a human peripheral blood mononuclear cells (PBMCs), a human whole blood assay, a Ca^2+ flux and radioligand binding assay in recombinant human P2X7 cells and recombinant rat P2X7 cells. […] The data represented in Tables 2 may represent a value from a single determination or when the experiment was run more than once, the data represents the average from between 2-12 runs.
P2X7 Antagonism in Recombinant Human P2X7 Cells or Recombinant Rat P2X7 Cells: […]

[4] = read-out: Human Whole Blood IC50

T1 sequence (Q99572 whole entry): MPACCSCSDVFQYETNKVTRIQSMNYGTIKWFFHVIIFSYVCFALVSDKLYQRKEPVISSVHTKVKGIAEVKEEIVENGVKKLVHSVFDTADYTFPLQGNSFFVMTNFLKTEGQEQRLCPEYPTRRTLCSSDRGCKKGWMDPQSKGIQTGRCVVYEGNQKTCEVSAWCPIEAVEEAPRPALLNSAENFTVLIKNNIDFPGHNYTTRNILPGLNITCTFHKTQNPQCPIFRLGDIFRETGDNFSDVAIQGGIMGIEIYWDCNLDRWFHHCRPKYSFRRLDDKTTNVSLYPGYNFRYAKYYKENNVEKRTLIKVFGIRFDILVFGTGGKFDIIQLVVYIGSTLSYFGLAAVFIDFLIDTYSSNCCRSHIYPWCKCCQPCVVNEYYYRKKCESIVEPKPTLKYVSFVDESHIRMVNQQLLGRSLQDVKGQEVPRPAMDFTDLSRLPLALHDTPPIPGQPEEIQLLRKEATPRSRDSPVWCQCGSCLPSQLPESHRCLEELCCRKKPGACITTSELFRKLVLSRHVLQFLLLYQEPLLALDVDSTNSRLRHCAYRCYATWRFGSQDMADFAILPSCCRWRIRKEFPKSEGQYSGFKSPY

SMILES | Ki (P2X7 [1]) | remaining activity at 10 µM (P2X7 [2]) | IC50 (P2X7 [3]; Human Whole Blood IC50 (μM)) | IC50 (rat P2X7) | IC50 (P2X7 [3]; [4])
Cc1nc(-c2ccn[nH]2)c2c(n1)[C@@H]1CCC[C@H](C2)N1C(=O)c1ccc(Cl)c(F)c1Cl [Example 10, (2,4-dichloro-3-fluorophenyl)((6R,10S)-2-methyl-4-(1H-pyrazol-5-yl)-5,6,7,8,9,10-hexahydro-6,10-epiminocycloocta[d]pyrimidin-11-yl)methanone] | 631 nM | 22.4% | 0.459 µM | – | –
Cc1nc(-c2ccccn2)c2c(n1)[C@H]1CCC[C@@H](C2)N1C(=O)c1cccc(C(F)(F)F)c1C [Example 62, (2-methyl-3-(trifluoromethyl)phenyl)((6S,10R)-2-methyl-4-(pyridin-2-yl)-5,6,7,8,9,10-hexahydro-6,10-epiminocycloocta[d]pyrimidin-11-yl)methanone] | 63.1 nM | -1.4% | 0.058 µM | 51.3 nM | –
Cc1nc(-c2ncccn2)c2c(n1)[C@H]1CCC[C@@H](C2)N1C(=O)c1cccc(C(F)(F)F)c1Cl [Example 41, (2-chloro-3-(trifluoromethyl)phenyl)((6S,10R)-2-methyl-4-(pyrimidin-2-yl)-5,6,7,8,9,10-hexahydro-6,10-epiminocycloocta[d]pyrimidin-11-yl)methanone] | 29.5 nM | -5.6% | 0.021 µM | 15.8 nM | –
Cc1nc(-c2cnn(C)c2)c2c(n1)[C@H]1CCC[C@@H](C2)N1C(=O)c1ccc(Cl)cc1F [Example 38, (4-chloro-2-fluorophenyl)((6S,10R)-2-methyl-4-(1-methyl-1H-pyrazol-4-yl)-5,6,7,8,9,10-hexahydro-6,10-epiminocycloocta[d]pyrimidin-11-yl)methanone] | – | 46.8% | – | > 10000 nM | > 10 µM
Cc1nc(-c2ccn[nH]2)c2c(n1)[C@@H]1CCC[C@H](C2)N1C(=O)c1ccnc(C(F)(F)F)c1Cl [Example 7, (3-chloro-2-(trifluoromethyl)pyridin-4-yl)((6R,10S)-2-methyl-4-(1H-pyrazol-5-yl)-5,6,7,8,9,10-hexahydro-6,10-epiminocycloocta[d]pyrimidin-11-yl)methanone] | – | 20.5% | 2.35 µM | 920 nM | –
Cc1nc(-c2ccn[nH]2)c2c(n1)[C@@H]1CCC[C@H](C2)N1C(=O)c1ccc(Cl)cc1F [Example 12, (4-chloro-2-fluorophenyl)((6R,10S)-2-methyl-4-(1H-pyrazol-5-yl)-5,6,7,8,9,10-hexahydro-6,10-epiminocycloocta[d]pyrimidin-11-yl)methanone] | – | 92.6% | – | > 10000 nM | 6.12 µM
Cc1nc(-c2ccn[nH]2)c2c(n1)[C@@H]1CCC[C@H](C2)N1C(=O)c1ccc(F)cc1Cl [Example 9, (2-chloro-4-fluorophenyl)((6R,10S)-2-methyl-4-(1H-pyrazol-5-yl)-5,6,7,8,9,10-hexahydro-6,10-epiminocycloocta[d]pyrimidin-11-yl)methanone] | – | 91.3% | – | > 10000 nM | 2.96 µM
Cc1nc(-c2cnn(C)c2)c2c(n1)[C@H]1CCC[C@@H](C2)N1C(=O)c1ccnc(C(F)(F)F)c1Cl [Example 32, (3-chloro-2-(trifluoromethyl)pyridin-4-yl)((6S,10R)-2-methyl-4-(1-methyl-1H-pyrazol-4-yl)-5,6,7,8,9,10-hexahydro-6,10-epiminocycloocta[d]pyrimidin-11-yl)methanone] | – | 4.8% | 1.58 µM | > 10000 nM | –
Cc1nc(-c2cnn(C)c2)c2c(n1)[C@H]1CCC[C@@H](C2)N1C(=O)c1ccc(Cl)c(F)c1Cl [Example 35, (2,4-dichloro-3-fluorophenyl)((6S,10R)-2-methyl-4-(1-methyl-1H-pyrazol-4-yl)-5,6,7,8,9,10-hexahydro-6,10-epiminocycloocta[d]pyrimidin-11-yl)methanone] | – | 9.1% | – | > 10000 nM | 2.3 µM
Cc1nc(-c2ccn[nH]2)c2c(n1)[C@H]1CCC[C@@H](C2)N1C(=O)c1ccc(Cl)c(F)c1Cl [Example 23, (2,4-dichloro-3-fluorophenyl)((6S,10R)-2-methyl-4-(1H-pyrazol-5-yl)-5,6,7,8,9,10-hexahydro-6,10-epiminocycloocta[d]pyrimidin-11-yl)methanone] | 31.6 nM | -24.7% | 0.018 µM | – | –
Cc1nc(-c2ccc(F)cc2)c2c(n1)[C@@H]1CCC[C@H](C2)N1C(=O)c1ccc(F)cc1Cl [Example 16, (2-chloro-4-fluorophenyl)((6R,10S)-4-(4-fluorophenyl)-2-methyl-5,6,7,8,9,10-hexahydro-6,10-epiminocycloocta[d]pyrimidin-11-yl)methanone] | – | 84.8% | 7.38 µM | > 10000 nM | –
Cc1nc(-c2cnn(C)c2)c2c(n1)[C@H]1CCC[C@@H](C2)N1C(=O)c1ccc(F)c(Cl)c1Cl [Example 33, (2,3-dichloro-4-fluorophenyl)((6S,10R)-2-methyl-4-(1-methyl-1H-pyrazol-4-yl)-5,6,7,8,9,10-hexahydro-6,10-epiminocycloocta[d]pyrimidin-11-yl)methanone] | – | 1.2% | – | > 10000 nM | 1.34 µM
Cc1nc(-c2cnn(C)c2)c2c(n1)[C@H]1CCC[C@@H](C2)N1C(=O)c1ccnc(C(F)(F)F)c1F [Example 37, (3-fluoro-2-(trifluoromethyl)pyridin-4-yl)((6S,10R)-2-methyl-4-(1-methyl-1H-pyrazol-4-yl)-5,6,7,8,9,10-hexahydro-6,10-epiminocycloocta[d]pyrimidin-11-yl)methanone] | – | 13.3% | – | > 10000 nM | 20.9 µM
Cc1nc(-c2ccc(F)cc2)c2c(n1)[C@@H]1CCC[C@H](C2)N1C(=O)c1cccc(C(F)(F)F)c1Cl [Example 13, (2-chloro-3-(trifluoromethyl)phenyl)((6R,10S)-4-(4-fluorophenyl)-2-methyl-5,6,7,8,9,10-hexahydro-6,10-epiminocycloocta[d]pyrimidin-11-yl)methanone] | – | 22.2% | 5.08 µM | 88.9 nM | –
Cc1nc(-c2ccnn2C)c2c(n1)[C@H]1CCC[C@@H](C2)N1C(=O)c1ccnc(C(F)(F)F)c1Cl [Example 60, (3-chloro-2-(trifluoromethyl)pyridin-4-yl)((6S,10R)-2-methyl-4-(1-methyl-1H-pyrazol-5-yl)-5,6,7,8,9,10-hexahydro-6,10-epiminocycloocta[d]pyrimidin-11-yl)methanone] | – | 21.4% | 1.98 µM | 798 nM | –
Cc1nc(-c2ccn[nH]2)c2c(n1)[C@H]1CCC[C@@H](C2)N1C(=O)c1ccc(Cl)cc1Cl [Example 20, (2,4-dichlorophenyl)((6S,10R)-2-methyl-4-(1H-pyrazol-5-yl)-5,6,7,8,9,10-hexahydro-6,10-epiminocycloocta[d]pyrimidin-11-yl)methanone] | 120 nM | -9.9% | 0.221 µM | – | –
Cc1nc(-c2cnn(C)c2)c2c(n1)[C@H]1CCC[C@@H](C2)N1C(=O)c1cccc(C(F)(F)F)c1F [Example 34, (2-fluoro-3-(trifluoromethyl)phenyl)((6S,10R)-2-methyl-4-(1-methyl-1H-pyrazol-4-yl)-5,6,7,8,9,10-hexahydro-6,10-epiminocycloocta[d]pyrimidin-11-yl)methanone] | – | 3.3% | 8.59 µM | > 10000 nM | –
Cc1nc(-c2ccn[nH]2)c2c(n1)[C@@H]1CCC[C@H](C2)N1C(=O)c1ccc(F)c(Cl)c1Cl [Example 4, (2,3-dichloro-4-fluorophenyl)((6R,10S)-2-methyl-4-(1H-pyrazol-5-yl)-5,6,7,8,9,10-hexahydro-6,10-epiminocycloocta[d]pyrimidin-11-yl)methanone] | – | 25.4% | 1.36 µM | 948 nM | –
